Assay results taken from publication PMC11249646, “Small-Molecule Disruptors of the Interaction between Calcium- and Integrin-Binding Protein 1 and Integrin αIIbβ3 as Novel Antiplatelet Agents” (ACS Pharmacology & Translational Science, 2024).
pIC50: −log10 of the molar value. Like-named read-outs stand apart in the source and are kept apart here.

Key:
[1] = molecular target: T1, GST-CIB1 : F-scrambled peptide (Homo sapiens, UniProt Q99828); assay: FP scrambled-peptide counter screen, 1536-well format; type: binding; conditions: scrambled-peptide counterscreen; for COUNTERSCREEN Confirm?: YES/NO call; for COUNTERSCREEN Curve Class: qHTS curve class
T1 construct: made in house; host or cells: BL-21 plus RIL cells (E. coli)
T1 sequence (Q99828 1-191): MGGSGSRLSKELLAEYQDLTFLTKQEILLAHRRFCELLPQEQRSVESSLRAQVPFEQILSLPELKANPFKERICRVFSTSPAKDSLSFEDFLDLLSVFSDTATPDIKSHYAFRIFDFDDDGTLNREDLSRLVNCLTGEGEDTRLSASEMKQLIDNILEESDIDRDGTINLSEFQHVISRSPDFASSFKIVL

[2] = molecular target: T1, GST-CIB1 : F-scrambled peptide; assay: FP scrambled-peptide counter screen, 384-well format; type: binding; conditions: F-scrambled peptide; for 384-well COUNTERSCREEN Confirm?: *: Curve in opposite direction; for pIC50: read-out: 384-well COUNTERSCREEN IC50
[3] = molecular target: T2, CIB1 and αIIb interaction (GST-CIB1 : F-αIIb peptide) (Homo sapiens, UniProt Q99828); assay: FP assay, 384-well format (screen); type: binding; design: 384-well SCREEN Efficacy (%): concentration or dose not given beside the values; conditions: F-αIIb peptide; for 384-well SCREEN Confirm?: YES/NO; for pIC50: read-out: 384-well SCREEN IC50
T2 construct: made in house; host or cells: BL-21 plus RIL cells (E. coli)
T2 sequence (Q99828 1-191): T1 sequence (Q99828 1-191)

[4] = molecular target: T3, CIB1 and αIIb interaction (CIB1-GST : F-αIIb peptide) (Homo sapiens, UniProt Q99828); assay: FP assay, 1536-well qHTS format (primary and confirmatory screen); type: binding; conditions: for CONFIRMATORY SCREEN Confirm?: YES/NO call; for CONFIRMATORY SCREEN Curve Class: qHTS curve class; for CONFIRMATORY SCREEN Curve Class / Curve Class: negative sign = inhibitory curve; for CONFIRMATORY SCREEN Efficacy (%) / Efficacy (%): negative = inhibition
T3 construct: made in house; host or cells: BL-21 plus RIL cells (E. coli)
T3 sequence (Q99828 1-191): T1 sequence (Q99828 1-191)

[5] = molecular target: T4, GST-CIB1:F-αIIb interaction (Homo sapiens, UniProt Q99828); assay: Gel-based (in-gel) binding assay; conditions: 1 μM GST-CIB1, 400 nM F-αIIb; for Active in Gel Assay?: 60 μM, 1:2, 4-points
T4 construct: made in house; host or cells: BL-21 plus RIL cells (E. coli)
T4 sequence (Q99828 1-191): T1 sequence (Q99828 1-191)

[6] = molecular target: T5, GST-CIB1 : F-αIIb peptide (Homo sapiens, UniProt Q99828); assay: FP assay in the presence of glutathione (GSH), thiol reactivity; type: binding; conditions: for shift in potency in the presence of GSH: with vs without 10 μM reduced GSH; for GSH/CIB1 IC50 ratio: ratio of GSH (+) IC50 to GSH (-) IC50
T5 construct: made in house; host or cells: BL-21 plus RIL cells (E. coli)
T5 sequence (Q99828 1-191): T1 sequence (Q99828 1-191)

[7] = confirmatory screen, read-out: CONFIRMATORY SCREEN IC50
[8] = qHTS FP screen hits, Table S2, one class per curve where COUNT > 1
[9] = concentrations tested 60, 30, 15, 7.5
[10] = FP assay in the presence of glutathione (GSH +), read-out: GSH (+) Assay IC50
[11] = FP assay without glutathione (GSH -), read-out: GSH (-) Assay IC50
[12] = qHTS primary screen hits, Table S2
[13] = qHTS primary screen hits, Table S2, read-out: IC50

SMILES | COUNTERSCREEN Efficacy (%) [1] | COUNTERSCREEN Confirm? [1] | 384-well COUNTERSCREEN Efficacy (%) [2] | 384-well COUNTERSCREEN Confirm? [2] | pIC50 [2] | 384-well SCREEN Efficacy (%) [3] | 384-well SCREEN Confirm? [3] | pIC50 [3] | CONFIRMATORY SCREEN Confirm? ([4]; confirmatory screen) | CONFIRMATORY SCREEN Curve Class ([4]; confirmatory screen) | CONFIRMATORY SCREEN Efficacy (%) ([4]; confirmatory screen) | pIC50 [4, 7] | Efficacy (%) ([4]; qHTS FP screen hits, Table S2) | Curve Class [4, 8] | Active in Gel Assay? [5] | pIC50 [6, 10] | pIC50 [6, 11] | COUNTERSCREEN Curve Class [1] | Efficacy (%) [4, 12] | shift in potency in the presence of GSH [6] | other results
O=C1C(I)=CC(=C(c2cc(I)c([O-])c(I)c2)c2ccccc2C(=O)[O-])C=C1I.[Na+].[Na+] [NCGC00161636-02] | 435% | YES | 105% | YES | 4.85 | 78% | YES | 4.50 | YES | -1.2 | -74% | 4.95 | -47% | -1.2 | YES | 4.55 | 4.80 |  |  |  | pIC50 ([1]; read-out: COUNTERSCREEN IC50): 4.05; IC50 ([4]; IC50 [μM], qHTS FP screen hits, Table S2): 17.8 µM; Inhibited concentration in gel [5, 9]: 60 µM; GSH Assay Result ([6]; thiol reactivity call: No change / Active): No change
S=C(SSC(=S)N1CCCCC1)N1CCCCC1 [NCGC00181776-02, dipentamethylenethiuram disulfide] | 0% | YES | 38% | YES | < 3.92 | 80% | YES | 5.20 | YES | -1.4 | -72% | 4.60 |  |  | YES |  |  | 4 | -64% | right-shift in potency | Curve Class ([4]; qHTS primary screen hits, Table S2, several classes where COUNT > 1): -1.2; pIC50 [4, 13]: 4.55; Inhibited concentration in gel (µM) [5, 9]: 60,30 µM
CC(C)(C)c1ccc(SC2=NS(=O)(=O)c3ccccc32)cc1 [NCGC00189495-01] | 0% | YES | 25% | YES | < 3.92 | 35% | YES | 5.05 | YES | -2.4 | -62% | 4.50 | -38% | -2.2 | YES | < 3.92 | 5.21 | 4 |  | right-shift in potency | pIC50 ([4]; qHTS FP screen hits, Table S2, read-out: IC50): 4.40; Inhibited concentration in gel (µM) [5, 9]: 60,30 µM; GSH/CIB1 IC50 ratio [6]: 28.3
O=c1[nH]sc2cc(Cl)ccc12 [NCGC00262908-01, ticlatone, reference compound] | 10% | YES | 95% | YES | < 3.92 | 79% | YES | 6.25 | YES | -1.2 | -50% | 5.55 |  |  | YES | 4.99 | 6.63 | 4 | -68% | right-shift in potency | Curve Class [4, 12]: -1.2; pIC50 [4, 13]: 5.46; GSH/CIB1 IC50 ratio [6]: 44.0
